Measurements from publication PMC7828231, “Delphinidin Increases the Sensitivity of Ovarian Cancer Cell Lines to 3-bromopyruvate” (International Journal of Molecular Sciences, 2021).
Read-outs that look alike come from different tables or passages of the source.

Legend:
Format in all cases: cell-based, human
PEO1 cells [1] = test: Level of reactive oxygen species (DHE, DCFDA); settings: 25-µM D, 20 µM 3-BP, 24 h
Protocol: (§1) The level of ROS in the MRC-5, SKOV3 and PEO1 cells after 24-h exposure to delphinidin chloride and 3-BP was assayed with 2′,7′-dichlorofluorescein diacetate (DCFDA) and dihydroethidium (DHE). Briefly, cells were seeded in a black 96-well flat clear-bottom plate at a density of 7.5 × 10^3/well for MRC-5 fibroblasts and 1 × 10^4 /well for cancer cells and allowed to attach at 37 °C for 24 h. After 24-h incubation, the medium was removed and replaced with a medium containing the examined substances at concentrations given previously. After incubation, the medium was removed and replaced by a 10-µM fluorescent probe (DHE or DCFDA) (100 µL/well). Stock solutions of the probes were prepared in DMSO, and working solutions were prepared in PBS. Fluorescence was measured at 490/529 nm (DCFDA) and 475/579 nm (DHE) for 2 h at 37 °C in 1-min intervals.

SKOV3 cells [2] = test: Level of reactive oxygen species (DHE, DCFDA); settings: 25-µM D, 40 µM 3-BP, 24 h
Protocol: as §1

MRC-5 fibroblasts [3] = test: Level of reactive oxygen species (DHE, DCFDA); settings: 25-µM D, 40 µM 3-BP, 24 h
Protocol: as §1

PEO1 cells [4] = test: Apoptosis and necrosis assay (RealTime-Glo Annexin V); settings: after 24 h
Protocol: The levels of apoptosis and necrosis were assayed using the RealTime-Glo™ Annexin V Apoptosis and Necrosis Assay. Cells were seeded into a white 96-well plate with optical bottom, cultured and treated adequately, as stated above. After 24 h, 100 μL of the freshly prepared reagent was added to each well according to the manufacturer’s protocols. The fluorescence and luminescence were measured according to the protocols.

PEO1 cells [5] = test: Cytotoxicity, Neutral Red survival assay; settings: read-out: IC50 of cell survival
Protocol: (§2) SKOV3 and PEO1 cells were seeded in a clear 96-well plate at a density of 1 × 10^4 cells/well in 100-µL culture medium. MRC-5 cells were seeded at a density of 7.5 × 10^3/well and allowed to attach for 24 h at 37 °C. After incubation, the cells were treated with delphinidin chloride in a concentration range of 10–100 µM and 3-BP at concentrations between 5–25 µM for PEO1 and 10–50 µM for MRC-5 and SKOV3. Nontreated cells were used as a control. Stock solutions of tested substances were prepared in DMSO and their working solutions in culture media. The DMSO concentration was adjusted to 0.2% in all samples, which had no significant effect on the treated cells. After 24-h exposure time, the medium was removed and replaced with 100 µL of […] neutral red solution, and the cells were incubated at 37 °C for 1 h. Then, the cells were washed with PBS; fixed with 100 µL/well of 50% ethanol, 49% H2O and 1% glacial acetic acid and shaken (700 rpm) at room temperature for 20 min. Absorbance was measured at 540 nm against 620 nm.

SKOV3 cells [6] = test: Cytotoxicity, Neutral Red survival assay; settings: read-out: IC50 of cell survival
Protocol: as §2

MRC-5 fibroblasts [7] = test: Cytotoxicity, Neutral Red survival assay
Protocol: as §2

PEO1 cells [8] = test: Atto-488-phalloidin and Mitotracker labeling (confocal); settings: 24 h
Protocol: (§3) Cells were seeded on an 8-well chamber slide (Lab-Tek™ II Chamber Slide™ System cat. no. 154534, Thermo Scientific, Waltham, MA, USA) at a density of 2.5 × 10^4 cells/chamber and allowed to attach at 37 °C. Subsequently, PEO1 and SKOV3 cells were treated with 25-µM D, 20-µM or 40-µM 3-BP (depending on the cell line) or both substances together for 24 h. Following the treatment, the medium was removed and replaced with 200-nM solution of Mitotracker Deep Red FM (i) (cat. no. M22426, Thermo Scientific, Waltham, MA, USA) in PBS and incubated for 30 min; in a CO2 incubator, the cells were washed with PBS (300 μL/well) and fixed with 200-μL/well 3.7% formaldehyde for 10 min. Then, the cells were washed with PBS (200 μL/well), permeabilized with 0.1% Triton X-100 solution (200 μL/well) for 10 min and washed with PBS (700 μL/well).
(§4) Following the treatment, the medium was removed and replaced with 150 μL/well of phalloidin working solution (ii) (prepared according to the manufacturer’s protocols) and incubated for 60 min.
(§5) After staining i or ii, the fixed cells were washed again, 600-nM solution of DAPI in PBS was added (200 µL/well), the cells were incubated at room temperature for 60 minutes and their micrographs were taken using a Zeiss LSM 710 inverted confocal microscope (Oberkochen, Germany). The ratio of fluorescence intensity of the mitochondria and cytoskeleton (expressed as a mean gray value) was calculated using ImageJ software. The corrected total cell fluorescence (CTFT) per cell was calculated according to https://theolb.readthedocs.io/en/latest/imaging/measuring-cell-fluorescence-using-imagej.html.

SKOV3 cells [9] = test: as above; settings: 25-µM D, 40-µM 3-BP, 24 h
Protocol: as §3, §4, §5

SMILES	level of DCFDA-reactive ROS (PEO1 cells [1])	level of DHE-detectable ROS (PEO1 cells [1])	level of DCFDA-reactive ROS (SKOV3 cells [2])	level of DCFDA-reactive ROS (MRC-5 fibroblasts [3])	level of DHE-detectable ROS (MRC-5 fibroblasts [3])	induction of necrosis (PEO1 cells [4])	decrease in the intensity of staining with Atto-488-phalloidin with respect to the control (SKOV3 cells [9])	decrease in the intensity of staining with Mitotracker Red with respect to the control (SKOV3 cells [9])	further results
O=C(O)C(=O)CBr [3-BP, 3-bromopyruvic acid]	increased	decreased	not affected	not affected	decreased	considerable induction of necrosis	about 33%	about 39%	level of DHE-detectable ROS (SKOV3 cells [2]): not affecting; IC50 (PEO1 cells [5]; Homo sapiens, PEO1, 24 h): 18.7 µM; IC50 (SKOV3 cells [6]; Homo sapiens, SK-OV-3, 24 h): 40.5 µM; survival of MRC-5 fibroblasts (MRC-5 fibroblasts [7]; up to a concentration of 50 µM): not compromised; increase in the intensity of staining with Atto-488-phalloidin with respect to the control (PEO1 cells [8]; 20-µM 3-BP): ~51%; decrease in the intensity of staining with Mitotracker Red with respect to the control (PEO1 cells [8]; 25-µM D, 20-µM 3-BP): about 7%
Oc1cc(O)c2cc(O)c(-c3cc(O)c(O)c(O)c3)[o+]c2c1 [Delphinidin chloride, 3,3′,4′,5,5′,7-hexahydroxyflavylium]	increased	increased	not affected	not affected	decreased	considerable induction of necrosis	~67%	~94%	IC50 (PEO1 cells [5]; Homo sapiens, PEO1, 24 h, PEO1, 24-h exposure, Neutral Red, ND = no reduction of survival in the concentration range studied): < 100 µM; IC50 (PEO1 cells [5]; PEO1, 24-h exposure, Neutral Red, ND = no reduction of survival in the concentration range studied): 71.5 µM; IC50 (SKOV3 cells [6]; Homo sapiens, SK-OV-3, 24 h, SKOV3, 24-h exposure, Neutral Red, ND = no reduction of survival in the concentration range studied): < 100 µM; IC50 (SKOV3 cells [6]; SKOV3, 24-h exposure, Neutral Red, ND = no reduction of survival in the concentration range studied): 57.5 µM; survival / viability of MRC-5 fibroblasts (MRC-5 fibroblasts [7]; up to 100 µM): did not affect; decrease in the intensity of staining with Atto-488-phalloidin with respect to the control (PEO1 cells [8]; 25-µM D, 20-µM 3-BP): ~17%; increase in the intensity of staining with Mitotracker Red with respect to the control (PEO1 cells [8]; 25-µM D): about 7%
